Source: ChEMBL document CHEMBL5131480, “Cinnamic acid derivatives linked to arylpiperazines as novel potent inhibitors of tyrosinase activity and melanin synthesis” (Eur J Med Chem, 2022)
Active and inactive are the calls of the source. The calls are words filed in the database; no cut-off is given here.

Assays:
Mushroom tyrosinase = Mushroom tyrosinase (Agaricus bisporus, UniProt O42713+Q00024+C7FF04+C7FF05); assay: Inhibition of mushroom tyrosinase using L-DOPA as substrate preincubated with substrate for 10 mins followed by addition of enzyme and measured for 5 mins by spectrophotometric analysis
[1] = biological target: Mushroom tyrosinase (Agaricus bisporus) (UniProt O42713+Q00024+C7FF04+C7FF05); assay: Potency index, ratio of kojic acid IC50 to test compound IC50 for mushroom tyrosinase by spectrophotometric analysis
in vitro [2] = conditions: human, A-375 cells
Description: Cytotoxicity against human A-375 cells assessed as cell viability at 50 uM incubated for 72 hrs by MTT assay relative to control

[3] = Acute toxicity in zebra fish embryos assessed as strong malformation embryos at 25 to 100 uM measured after 48 hrs by stereomicroscope analysis; design: species or system Danio rerio; conditions: zebrafish, dose 25-100 µM
[4] = Cytotoxicity against human A-375 cells assessed as cell viability at 20 uM incubated for 72 hrs by MTT assay relative to control; format: toxicity, cell-based; conditions: read-out: Activity
[5] = Acute toxicity in zebra fish embryos assessed as bradycardia at 25 to 100 uM measured after 24 hrs by stereomicroscope analysis; design: species or system Danio rerio; conditions: zebrafish, dose 25-100 µM
in vitro [6] = conditions: human, A-375 cells; remark: listed apart in the source
Description: Cytotoxicity against human A-375 cells assessed as reduction in cell viability incubated for 72 hrs by MTT assay

[7] = Acute toxicity in zebra fish embryos assessed as lack of somite formation at 25 to 100 uM measured after 24 hrs by stereomicroscope analysis; design: species or system Danio rerio; conditions: zebrafish, dose 25-100 µM
Danio rerio [8] = species: Danio rerio; assay: Anti-melanogenic activity against zebra fish embryos assessed as proportion of embryos with none to mild moderate decrease in melanogenesis at 25 uM measured after 48 hrs by stereomicroscope analysis relative to control; format: functional; design: scale not given: the % may be the effect or the level left
Danio rerio [9] = species: Danio rerio; assay: Anti-melanogenic activity against zebra fish embryos assessed as proportion of embryos with none to mild moderate decrease in melanogenesis at 50 uM measured after 48 hrs by stereomicroscope analysis relative to control; format: functional; design: scale not given: the % may be the effect or the level left
Danio rerio [10] = species: Danio rerio; assay: Anti-melanogenic activity against zebra fish embryos assessed as proportion of embryos showing moderate decrease in melanogenesis at 25 uM measured after 48 hrs by stereomicroscope analysis relative to control; format: functional; design: scale not given: the % may be the effect or the level left
Danio rerio [11] = species: Danio rerio; assay: Anti-melanogenic activity against zebra fish embryos assessed as proportion of embryos showing profound decrease in melanogenesis at 25 uM measured after 48 hrs by stereomicroscope analysis relative to control; format: functional; design: scale not given: the % may be the effect or the level left
[12] = Acute toxicity in zebra fish embryos assessed as lack of detachment of tail bud from yolk sac at 25 to 100 uM measured after 24 hrs by stereomicroscope analysis; design: species or system Danio rerio, Embryo; conditions: zebrafish, dose 25-100 µM
Danio rerio [13] = species: Danio rerio; assay: Anti-melanogenic activity against zebra fish embryos assessed as proportion of embryos showing moderate decrease in melanogenesis at 50 uM measured after 48 hrs by stereomicroscope analysis relative to control; format: functional; design: scale not given: the % may be the effect or the level left
Danio rerio [14] = species: Danio rerio; assay: Anti-melanogenic activity against zebra fish embryos assessed as proportion of embryos showing profound decrease in melanogenesis at 50 uM measured after 48 hrs by stereomicroscope analysis relative to control; format: functional; design: scale not given: the % may be the effect or the level left
[15] = Acute toxicity in zebra fish embryos assessed as lack of heart beat at 25 to 100 uM measured after 24 hrs by stereomicroscope analysis; format: tissue-based, Danio rerio; conditions: zebrafish, dose 25-100 µM
[16] = Acute toxicity in zebra fish embryos assessed as bradycardia at 25 to 100 uM measured after 48 hrs by stereomicroscope analysis; design: species or system Danio rerio; conditions: zebrafish, dose 25-100 µM
[17] = Acute toxicity in zebra fish embryos assessed as coagulation of fertilized eggs at 25 to 100 uM measured after 24 hrs by stereomicroscope analysis; design: species or system Danio rerio; conditions: zebrafish, dose 25-100 µM
[18] = Acute toxicity in zebra fish embryos assessed as alteration in heart functioning at 50 uM measured after 24 hrs by stereomicroscopic analysis; format: tissue-based, Danio rerio; conditions: zebrafish
[19] = Acute toxicity in zebra fish embryos assessed as pericardial edema and embryonic lethality at 50 uM measured after 24 hrs by stereomicroscopic analysis; design: species or system Danio rerio; conditions: zebrafish
[20] = Acute toxicity in zebra fish embryos assessed as death of organism at 50 uM measured after 48 hrs by stereomicroscope analysis; design: species or system Danio rerio; conditions: zebrafish
[21] = Acute toxicity in zebra fish embryos assessed as coagulation of fertilized eggs measured at 25 to 100 uM measured after 24 to 48 hrs by stereomicroscope analysis; design: species or system Danio rerio; conditions: zebrafish, dose lower 25 µM, time lower 24 hrs, dose upper 100 µM, time upper 48 hrs
[22] = Acute toxicity in zebra fish embryos assessed as lack of heart beat at 25 to 100 uM measured after 24 to 48 hrs by stereomicroscope analysis; format: tissue-based, Danio rerio; conditions: zebrafish, dose lower 25 µM, time lower 24 hrs, dose upper 100 µM, time upper 48 hrs
[23] = Acute toxicity in zebra fish embryos assessed as lack of somite formation at 25 to 100 uM measured after 24 to 48 hrs by stereomicroscope analysis; design: species or system Danio rerio; conditions: zebrafish, dose lower 25 µM, time lower 24 hrs, dose upper 100 µM, time upper 48 hrs
[24] = Acute toxicity in zebra fish embryos assessed as lack of detachment of tail bud from yolk sac at 25 to 100 uM measured after 24 to 48 hrs by stereomicroscope analysis; design: species or system Danio rerio, Embryo; conditions: zebrafish, dose lower 25 µM, time lower 24 hrs, dose upper 100 µM, time upper 48 hrs
[25] = biological target: T1, Tyrosinase (Homo sapiens) (UniProt P14679); assay: Inhibition of tyrosinase activity in alpha-MSH stimulated human A-375 cells using L-DOPA as substrate at 20 uM by microplate reader analysis; format: cell-based
T1 sequence (whole entry): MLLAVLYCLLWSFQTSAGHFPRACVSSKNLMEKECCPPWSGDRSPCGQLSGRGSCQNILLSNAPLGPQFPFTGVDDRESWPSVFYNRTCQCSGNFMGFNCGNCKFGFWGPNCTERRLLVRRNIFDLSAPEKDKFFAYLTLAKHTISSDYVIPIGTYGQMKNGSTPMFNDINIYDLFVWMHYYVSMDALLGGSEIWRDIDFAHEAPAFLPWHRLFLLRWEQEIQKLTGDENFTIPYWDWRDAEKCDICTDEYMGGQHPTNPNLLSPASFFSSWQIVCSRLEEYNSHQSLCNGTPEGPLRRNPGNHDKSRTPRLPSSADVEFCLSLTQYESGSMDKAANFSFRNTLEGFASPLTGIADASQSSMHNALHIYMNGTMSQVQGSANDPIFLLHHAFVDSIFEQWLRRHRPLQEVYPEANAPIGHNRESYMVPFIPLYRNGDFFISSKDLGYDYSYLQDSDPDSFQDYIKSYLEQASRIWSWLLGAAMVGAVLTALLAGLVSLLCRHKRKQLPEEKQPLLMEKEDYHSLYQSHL

[26] = Acute toxicity in zebra fish embryos assessed as strong malformation embryos at 100 uM measured after 48 hrs by stereomicroscope analysis; design: species or system Danio rerio; conditions: zebrafish
[27] = Acute toxicity in zebra fish embryos assessed as death of organism measured at 25 to 100 uM measured after 24 hrs by stereomicroscope analysis; design: species or system Danio rerio; conditions: zebrafish, dose 25-100 µM
[28] = biological target: T1, Tyrosinase (Homo sapiens); assay: Inhibition of tyrosinase activity in alpha-MSH stimulated human A-375 cells using L-DOPA as substrate at 20 uM by microplate reader analysis relative to control; format: cell-based

| Structure (SMILES) | IC50 (Mushroom tyrosinase) [µM] | Ratio IC50 [1] | viability at 72 h, 50 µM (in vitro [2]) [%] | viability at 72 h, 20 µM [4] [%] | GI50 at 72 h (in vitro [6]) [µM] | Activity (Danio rerio [8]) [%] | Activity (Danio rerio [9]) [%] | Activity (Danio rerio [10]) [%] | Activity (Danio rerio [11]) [%] | Activity (Danio rerio [13]) [%] | Activity (Danio rerio [14]) [%] | other results |
| --- | --- | --- | --- | --- | --- | --- | --- | --- | --- | --- | --- | --- |
| O=C(/C=C/c1ccc([N+](=O)[O-])cc1)N1CCN(c2ccc(F)c(Cl)c2)CC1 | 0.35 | 30 | 85.4 | 98 | > 50 |  |  |  |  |  |  | Activity [3]: 13.3%; Activity [5]: Toxic |
| O=C(/C=C/c1ccc(Cl)cc1)N1CCN(c2ccc(F)c(Cl)c2)CC1 | 0.33 | 30 |  | 98 | 43.8 | 0 | 95 | 0 | 0 | 5 | 0 | Activity [7]: Non-Toxic; Activity [12]: Non-Toxic; Activity [15]: Non-Toxic; Activity [16]: Toxic; Activity [17]: Non-Toxic |
| COc1ccc(Cl)cc1/C=C/C(=O)N1CCN(c2ccc(F)c(Cl)c2)CC1 | 0.46 | 30 | 72.6 | 98 | > 50 |  |  |  |  |  |  | Activity [18]: 95%; Activity [7]: Non-Toxic; Activity [19]: 5%; Activity [12]: Non-Toxic; Activity [20]: Toxic; Activity [15]: Non-Toxic; Activity [16]: Toxic; Activity [17]: Non-Toxic |
| O=C(/C=C/c1ccc(Cl)cc1)N1CCN(c2ccc(F)cc2)CC1 | 14.09 |  |  |  |  |  |  |  |  |  |  |  |
| COc1ccc(/C=C/C(=O)N2CCN(c3ccc(F)c(Cl)c3)CC2)cc1N | 0.53 | 30 |  | 45 | 16.1 | 80 | 50 | 20 | 0 | 20 | 30 | Activity [21]: Non-Toxic; Activity [22]: Non-Toxic; Activity [23]: Non-Toxic; Activity [24]: Non-Toxic |
| COc1cccc(/C=C/C(=O)N2CCN(c3ccc(F)c(Cl)c3)CC2)c1 | 0.25 | 30 | 54 | 98 | > 50 | 100 | 100 | 0 | 0 | 0 | 0 | Activity [21]: Non-Toxic; inhibition [25]: Active; Activity [22]: Non-Toxic; Activity [23]: Non-Toxic; Activity [24]: Non-Toxic |
| O=C(/C=C/c1cccc([N+](=O)[O-])c1)N1CCN(c2ccc(F)c(Cl)c2)CC1 | 0.16 | 30 | 87.2 | 98 | > 50 | 100 | 85 | 0 | 0 | 15 | 0 | Activity [7]: Non-Toxic; Activity [12]: Non-Toxic; Activity [26]: 6.6%; Activity [15]: Non-Toxic; Activity [17]: Non-Toxic |
| COc1cccc(/C=C/C(=O)N2CCN(c3ccc(F)c(Cl)c3)CC2)c1Cl | 0.12 | 150 | 69.6 | 98 | > 50 | 85 | 50 | 15 | 0 | 30 | 20 | Activity [27]: Toxic; inhibition [25]: Active; Activity [15]: Toxic |
| COc1ccc(/C=C/C(=O)N2CCN(c3ccc(F)c(Cl)c3)CC2)cc1[N+](=O)[O-] | 0.51 | 30 | 93.5 | 98 | > 50 | 25 | 45 | 60 | 15 | 45 | 10 | inhibition [28]: 60%; Activity [21]: Non-Toxic; Activity [22]: Non-Toxic; Activity [23]: Non-Toxic; Activity [24]: Non-Toxic |

Further lines, with some results ahead:

| IC50 (Mushroom tyrosinase) [µM] | Structure (SMILES) | Ratio IC50 [1] | viability at 72 h, 50 µM (in vitro [2]) [%] | viability at 72 h, 20 µM [4] [%] | GI50 at 72 h (in vitro [6]) [µM] | Activity (Danio rerio [8]) [%] | Activity (Danio rerio [9]) [%] | Activity (Danio rerio [10]) [%] | Activity (Danio rerio [11]) [%] | Activity (Danio rerio [13]) [%] | Activity (Danio rerio [14]) [%] | other results |
| --- | --- | --- | --- | --- | --- | --- | --- | --- | --- | --- | --- | --- |
| > 100 | COc1ccc(/C=C/C(=O)N2CCN(c3cccc(F)c3)CC2)cc1N |  |  |  |  |  |  |  |  |  |  |  |
| 17.85 | COc1ccc(/C=C/C(=O)N2CCN(c3ccc(F)cc3)CC2)cc1N |  |  |  |  |  |  |  |  |  |  |  |
| 6.84 | COc1ccc(/C=C/C(=O)N2CCN(c3ccc(F)c(F)c3)CC2)cc1N |  |  |  |  |  |  |  |  |  |  |  |
| 9.96 | COc1cccc(/C=C/C(=O)N2CCN(c3ccc(F)cc3)CC2)c1 |  |  |  |  |  |  |  |  |  |  |  |
| 34.25 | O=C(/C=C/c1ccc2c(c1)OCO2)N1CCN(c2cccc(Cl)c2)CC1 |  |  |  |  |  |  |  |  |  |  |  |
| 55.64 | COc1ccc(/C=C/C(=O)N2CCN(Cc3ccccc3)CC2)cc1N |  |  |  |  |  |  |  |  |  |  |  |
| 15.47 | COc1ccc(/C=C/C(=O)N2CCN(c3ccc(F)c(F)c3)CC2)cc1[N+](=O)[O-] |  |  |  |  |  |  |  |  |  |  |  |
| 27.4 | COc1ccc(Cl)cc1/C=C/C(=O)N1CCN(c2ccc(F)cc2)CC1 |  |  |  |  |  |  |  |  |  |  |  |
| 23.32 | O=C(/C=C/c1cccc([N+](=O)[O-])c1)N1CCN(c2ccc(F)cc2)CC1 |  |  |  |  |  |  |  |  |  |  |  |
